Values quoted from earlier work, collected in US20070105793A1, “Compositions and methods using nicotinic acid for treatment of hypercholesterolemia, hyperlipidemia nd cardiovascular disease” (priority 2005, published 2007).

What was measured:
[1] = in vivo
[2] = after ingestion
[3] = tested on: β-thromboglobulin; conditions: in vivo

SMILES | flush [1] | impact on blood sugar [1] | time of release of niacin into the system by hydrolysis [2] | effect on β-thromboglobulin [3]
O=C(O[C@H]1[C@H](OC(=O)c2cccnc2)[C@@H](OC(=O)c2cccnc2)[C@H](OC(=O)c2cccnc2)[C@@H](OC(=O)c2cccnc2)[C@H]1OC(=O)c1cccnc1)c1cccnc1 [IHN, inositol hexanicotinate] | “zero” flush | no negative impact on blood sugar | around 10 hours | –
O=C(O)c1cccnc1 [niacin, nicotinic acid] | – | – | – | does not have a favorable effect on β-thromboglobulin
